In patent EP0531640B1, “Antibiotic LL-E19020 Gamma” (F. HOFFMANN-LA ROCHE AG, priority 1991, dated 1993):
≈ marks a conversion by molar mass, not a printed value.

How the values were obtained:
Assay type in all cases: cell-based
Bacillus cereus DAVIES = test: MIC by agar dilution; conditions: Mueller-Hinton agar, 5% sheep blood, 18 hours, read-out: MINIMAL INHIBITORY CONCENTRATION
Protocol: (§1) The in vitro antibacterial activity of LL-E19020 Gamma is determined against a spectrum of gram positive and gram negative bacteria by a standard agar dilution method. Mueller-Hinton agar containing 5% sheep blood and two-fold decreasing concentrations of LL-E19020 Gamma is poured into petri dishes. The agar surfaces are inoculated with 1 to 5X10^4 colony forming units of bacteria by means of the Steers replicating device. The lowest concentration of antibiotic that inhibits growth of a bacterial strain after 18 hours incubation is recorded as the minimal inhibitory concentration for that strain.
(§2) • 1. Serial two-flow dilutions of drug are prepared in Mueller-Hinton broth in a range of 2560 µg/ml-0.15 µg/ml plus a solvent control. • 2. Two milliliters of drug dilution (10X) are added to sterile screw cap bottles to which 18 ml of Mueller-Hinton agar containing 5.6% defibrinated sheep blood is added. Final drug concentration ranges 256 µg/ml-0.015 µg/ml in agar containing 5% sheep blood. • 3. A few isolated colonies of each test organism are inoculated into 5 ml trypticase soy broth or brain heart infusion broth. The cultures are shaken at 35 °C. for 5 hours. • 4. Each culture is diluted 1:50 (10^-1.7) in Mueller-Hinton broth and applied to agar plates using a Steers replicator. Control plates should be seeded last to ensure that viable organisms are present throughout the procedure. Inoculated agar plates are allowed to stand undisturbed until the inoculum spots are completely absorbed. • 5. The plates are inverted and incubated at 35 °C. for 18 hours with CO2. • 6. The minimum inhibitory concentration (MIC) is taken as the lowest concentration of antimicrobial agent at which complete inhibition of antimicrobial agent at which complete inhibition occurs. A very fine, barely visible haze or a single colony is disregarded.

[1] = test system: Enterococcus spp. ARUM 87-41; test: MIC by agar dilution; conditions: Mueller-Hinton agar, 5% sheep blood, 18 hours, read-out: MINIMAL INHIBITORY CONCENTRATION
Protocol: as §1, §2

[2] = test system: Enterococcus spp. CHBM 88-60; test: MIC by agar dilution; conditions: Mueller-Hinton agar, 5% sheep blood, 18 hours, read-out: MINIMAL INHIBITORY CONCENTRATION
Protocol: as §1, §2

[3] = test system: Enterococcus spp. CMC 83-120; test: MIC by agar dilution; conditions: Mueller-Hinton agar, 5% sheep blood, 18 hours, read-out: MINIMAL INHIBITORY CONCENTRATION
Protocol: as §1, §2

[4] = test system: Enterococcus spp. UCI 85-30; test: MIC by agar dilution; conditions: Mueller-Hinton agar, 5% sheep blood, 18 hours, read-out: MINIMAL INHIBITORY CONCENTRATION
Protocol: as §1, §2

[5] = test system: Enterococcus spp. VGH 84-69; test: MIC by agar dilution; conditions: Mueller-Hinton agar, 5% sheep blood, 18 hours, read-out: MINIMAL INHIBITORY CONCENTRATION
Protocol: as §1, §2

[6] = test system: Enterococcus spp. WRVA 88-33; test: MIC by agar dilution; conditions: Mueller-Hinton agar, 5% sheep blood, 18 hours, read-out: MINIMAL INHIBITORY CONCENTRATION
Protocol: as §1, §2

[7] = test system: Escherichia coli ATCC 25922; test: MIC by agar dilution; conditions: ATCC25922, Mueller-Hinton agar, 5% sheep blood, 18 hours, read-out: MINIMAL INHIBITORY CONCENTRATION
Protocol: as §1, §2

[8] = test system: Escherichia coli ATCC 35218; test: MIC by agar dilution; conditions: ATCC35218, 18 h, read-out: MINIMAL INHIBITORY CONCENTRATION
Protocol: as §1, §2

[9] = test system: Klebsiella pneumoniae NEMC 87-271; test: MIC by agar dilution; conditions: NEMC87271, Mueller-Hinton agar, 5% sheep blood, 18 hours, read-out: MINIMAL INHIBITORY CONCENTRATION
Protocol: as §1, §2

[10] = test system: Pseudomonas aeruginosa 12-4-4 (MP); test: MIC by agar dilution; conditions: Mueller-Hinton agar, 5% sheep blood, 18 hours, read-out: MINIMAL INHIBITORY CONCENTRATION
Protocol: as §1, §2

[11] = test system: Staphylococcus aureus ATCC 25923; test: MIC by agar dilution; conditions: ATCC25923, Mueller-Hinton agar, 5% sheep blood, 18 hours, read-out: MINIMAL INHIBITORY CONCENTRATION
Protocol: as §1, §2

[12] = test system: Staphylococcus aureus ATCC 29213; test: MIC by agar dilution; conditions: ATCC29213, Mueller-Hinton agar, 5% sheep blood, 18 hours, read-out: MINIMAL INHIBITORY CONCENTRATION
Protocol: as §1, §2

[13] = test system: Staphylococcus aureus CMC 83-131; test: MIC by agar dilution; conditions: CMC83131, Mueller-Hinton agar, 5% sheep blood, 18 hours, read-out: MINIMAL INHIBITORY CONCENTRATION
Protocol: as §1, §2

[14] = test system: Staphylococcus aureus IVES 160; test: MIC by agar dilution; conditions: IVES160, Mueller-Hinton agar, 5% sheep blood, 18 hours, read-out: MINIMAL INHIBITORY CONCENTRATION
Protocol: as §1, §2

[15] = test system: Staphylococcus aureus IVES 396; test: MIC by agar dilution; conditions: IVES396, Mueller-Hinton agar, 5% sheep blood, 18 hours, read-out: MINIMAL INHIBITORY CONCENTRATION
Protocol: as §1, §2

[16] = test system: Staphylococcus aureus NEMC 87-69; test: MIC by agar dilution; conditions: NEMC8769, Mueller-Hinton agar, 5% sheep blood, 18 hours, read-out: MINIMAL INHIBITORY CONCENTRATION
Protocol: as §1, §2

[17] = test system: Staphylococcus aureus ROSE (MP); test: MIC by agar dilution; conditions: Mueller-Hinton agar, 5% sheep blood, 18 hours, read-out: MINIMAL INHIBITORY CONCENTRATION
Protocol: as §1, §2

[18] = test system: Staphylococcus aureus SMITH (MP); test: MIC by agar dilution; conditions: Mueller-Hinton agar, 5% sheep blood, 18 hours, read-out: MINIMAL INHIBITORY CONCENTRATION
Protocol: as §1, §2

[19] = test system: Staphylococcus aureus VGH 84-47; test: MIC by agar dilution; conditions: VGH8447, 18 h, read-out: MINIMAL INHIBITORY CONCENTRATION
Protocol: as §1, §2

[20] = test system: Staphylococcus epidermidis IVES 455; test: MIC by agar dilution; conditions: IVES455, Mueller-Hinton agar, 5% sheep blood, 18 hours, read-out: MINIMAL INHIBITORY CONCENTRATION
Protocol: as §1, §2

[21] = test system: Staphylococcus haemolyticus AVAH 88-1; test: MIC by agar dilution; conditions: AVAH881, Mueller-Hinton agar, 5% sheep blood, 18 hours, read-out: MINIMAL INHIBITORY CONCENTRATION
Protocol: as §1, §2

[22] = test system: Staphylococcus haemolyticus AVAH 88-3; test: MIC by agar dilution; conditions: AVAH883, Mueller-Hinton agar, 5% sheep blood, 18 hours, read-out: MINIMAL INHIBITORY CONCENTRATION
Protocol: as §1, §2

[23] = test system: Streptococcus pneumoniae CHBM 88-75; test: MIC by agar dilution; conditions: CHBM8875, Mueller-Hinton agar, 5% sheep blood, 18 hours, read-out: MINIMAL INHIBITORY CONCENTRATION
Protocol: as §1, §2

[24] = test system: Streptococcus pneumoniae SV-1 (MP); test: MIC by agar dilution; conditions: Mueller-Hinton agar, 5% sheep blood, 18 hours, read-out: MINIMAL INHIBITORY CONCENTRATION
Protocol: as §1, §2

[25] = test system: Streptococcus pneumoniae TEX 85-2; test: MIC by agar dilution; conditions: TEX852, Mueller-Hinton agar, 5% sheep blood, 18 hours, read-out: MINIMAL INHIBITORY CONCENTRATION
Protocol: as §1, §2

[26] = test system: Streptococcus pyogenes AMCH 88-84; test: MIC by agar dilution; conditions: AMCH8884, Mueller-Hinton agar, 5% sheep blood, 18 hours, read-out: MINIMAL INHIBITORY CONCENTRATION
Protocol: as §1, §2

[27] = test system: Streptococcus pyogenes AMCH 88-86; test: MIC by agar dilution; conditions: AMCH8886, Mueller-Hinton agar, 5% sheep blood, 18 hours, read-out: MINIMAL INHIBITORY CONCENTRATION
Protocol: as §1, §2

[28] = test system: Streptococcus pyogenes C203 (MP); test: MIC by agar dilution; conditions: Mueller-Hinton agar, 5% sheep blood, 18 hours, read-out: MINIMAL INHIBITORY CONCENTRATION
Protocol: as §1, §2

gram negative bacteria = test: MIC by agar dilution, summary for gram-negative bacteria; conditions: 18 h; text summary: no gram-negative activity
Protocol: as §1
as §2, with “Inoculated agar plates are allowed to stand undisturbed until the inoculum spots are completely absorbed. • 5. The plates are inverted and incubated at 35 °C. for 18 hours with CO2. • 6. The minimum inhibitory concentration (MIC) is taken as the lowest concentration of antimicrobial agent at which complete inhibition of antimicrobial agent at which complete inhibition occurs. A very fine, barely visible haze or a single colony is disregarded.” left out

[29] = test system: staphylococci and enterococci; test: MIC by agar dilution, summary for staphylococci and enterococci; conditions: 18 h; text summary: poor to moderate activity vs staphylococci and enterococci
Protocol: as §1
as §2, with “Inoculated agar plates are allowed to stand undisturbed until the inoculum spots are completely absorbed. • 5. The plates are inverted and incubated at 35 °C. for 18 hours with CO2. • 6. The minimum inhibitory concentration (MIC) is taken as the lowest concentration of antimicrobial agent at which complete inhibition of antimicrobial agent at which complete inhibition occurs. A very fine, barely visible haze or a single colony is disregarded.” left out

C/C=C\C=C\C1OC(O)(C(COC2CC(OC)C(OC3CC(OC)C(OC4CC(OC)C(O)C(C)O4)C(C)O3)C(C)O2)C(=O)NC/C=C/C=C(\C)C(OC)C(C)C2CC(O)C(/C=C/C=C/C=C/C(=O)O)O2)C(OC(=O)Cc2ccc(O)cc2)C(O)C1(C)C (stereo not shown) [LL-E19020 Gamma]
MIC (Bacillus cereus DAVIES): 32 µg/mL (≈ 25.8 µM) | MIC [1]: 8 µg/mL (≈ 6.44 µM) | MIC [2]: 16 µg/mL (≈ 12.9 µM) | MIC [3]: 16 µg/mL (≈ 12.9 µM) | MIC [4]: 16 µg/mL (≈ 12.9 µM) | MIC [5]: 16 µg/mL (≈ 12.9 µM) | MIC [6]: 16 µg/mL (≈ 12.9 µM) | MIC [7]: > 128 µg/mL | MIC [8]: > 128 µg/mL | MIC [9]: > 128 µg/mL | MIC [10]: > 128 µg/mL | MIC [11]: > 128 µg/mL | MIC [12]: 128 µg/mL (≈ 103 µM) | MIC [13]: 64 µg/mL (≈ 51.5 µM) | MIC [14]: 32 µg/mL (≈ 25.8 µM) | MIC [15]: 64 µg/mL (≈ 51.5 µM) | MIC [16]: 32 µg/mL (≈ 25.8 µM) | MIC [17]: 32 µg/mL (≈ 25.8 µM) | MIC [18]: 128 µg/mL (≈ 103 µM) | MIC [19]: 64 µg/mL (≈ 51.5 µM) | MIC [20]: 16 µg/mL (≈ 12.9 µM) | MIC [21]: 64 µg/mL (≈ 51.5 µM) | MIC [22]: 16 µg/mL (≈ 12.9 µM) | MIC [23]: 16 µg/mL (≈ 12.9 µM) | MIC [24]: 0.12 µg/mL (≈ 0.0966 µM) | MIC [25]: 0.5 µg/mL (≈ 0.402 µM) | MIC [26]: 0.12 µg/mL (≈ 0.0966 µM) | MIC [27]: 0.5 µg/mL (≈ 0.402 µM) | MIC [28]: 0.12 µg/mL (≈ 0.0966 µM) | MIC (gram negative bacteria): > 128 µg/mL | MIC [29]: 8 to 128 µg/mL (≈ 6.44 to 103 µM)
